{"source": "ChEMBL document CHEMBL1150891", "about": "“Isolation of 1-carboxymethylnicotinic acid from the marine sponge anthosigmella cf. raromicrosclera As a cysteine protease inhibitor1” (J Nat Prod, 1998)", "biological_target": "T1, Papain (Carica papaya, UniProt P00784)", "T1 sequence (P00784 whole entry)": "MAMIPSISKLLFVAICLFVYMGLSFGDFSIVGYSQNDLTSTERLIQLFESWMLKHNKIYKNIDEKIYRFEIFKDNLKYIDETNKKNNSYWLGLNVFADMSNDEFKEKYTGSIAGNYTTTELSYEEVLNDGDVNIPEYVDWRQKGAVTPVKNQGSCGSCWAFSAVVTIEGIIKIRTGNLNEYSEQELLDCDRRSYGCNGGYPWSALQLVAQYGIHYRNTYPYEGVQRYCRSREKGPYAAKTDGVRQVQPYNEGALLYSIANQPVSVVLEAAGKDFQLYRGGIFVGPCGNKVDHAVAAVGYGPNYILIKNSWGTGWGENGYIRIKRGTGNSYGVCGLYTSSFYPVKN", "assay": "Inhibition of Carica papaya papain", "data": [{"smiles": "O=C([O-])C[n+]1cccc(C(=O)O)c1", "values": [{"measurement": "IC50", "result": 442, "unit": "µM"}]}]}
